The values that follow come from PubChem BioAssay (NCI).

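These data come from cells grown in 96-well plates and exposed to compound for 48 hours at five concentrations. GI50 is the concentration that inhibits growth by half. Definition used: TGI = concentration required for complete inhibition of growth.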 Some results are limits rather than exact numbers.

Assay in all cases: DTP human tumour cell line panel, 48 h
Experiment [1] deals with SF-268 CNS.
Experiment [2] deals with NCI-H522 lung.
Experiment [3] relates to MCF7 breast.
Experiment [4] deals with ACHN renal.
Experiment [5] concerns HCT-15 colon.
In experiment [6] the test system is M14 melanoma.
The test system of experiment [7] is NCI/ADR-RES ovarian.
For experiment [8], the system named is HOP-62 NSCLC.

As for `CCc1cccc(CC)c1NC(=O)c1ccn2c1CCc1cnc(Nc3ccc(N4CCN(C)CC4)cc3OC)nc1-2`, the GI50 in experiment [1] was 3.14 µM; in experiment [2], 1.81 µM; in experiment [3], 1.12 µM; in experiment [4], 2.31 µM; in experiment [5], 0.0413 µM; in experiment [6] it was 1.59 µM. In addition, in experiment [7], the GI50 is 1.33 µM. The concentration for total growth inhibition (TGI) in experiment [1] is 17.8 µM; in experiment [2], 4.32 µM; in experiment [3], 7.55 µM; in experiment [4] it was 12.4 µM; in experiment [5], 2.55 µM; in experiment [6], 3.62 µM. Also, the total growth inhibition concentration (TGI) in experiment [7] was > 100 µM.

As for `C(=C\c1nc2ccccc2s1)/c1ccc(N2CCOCC2)s1`, the GI50 in experiment [1] was 44 µM; in experiment [2], 49.2 µM; in experiment [3], 75 µM; in experiment [4] it was 33.4 µM; in experiment [5], 17.1 µM; in experiment [6], > 100 µM. The GI50 was 37.1 µM in experiment [7] and 45.5 µM in experiment [8]. Besides, the concentration for total growth inhibition (TGI) in experiment [1], in experiment [2], in experiment [3], in experiment [4], in experiment [5] and in experiment [6] was > 100 µM in each case. Moreover, the total growth inhibition concentration (TGI) in experiment [7] and in experiment [8] was > 100 µM throughout.

As for `CC(C)NCCCCCNc1cc(O)cc2cccnc12`, the GI50 in experiment [1] was > 100 µM; in experiment [2], 3.94 µM; in experiment [3] it was 18.7 µM; in experiment [4] it was > 100 µM; in experiment [5], > 100 µM; in experiment [6], > 100 µM. Also, the GI50 in experiment [7] and in experiment [8] was > 100 µM throughout. Further, the total growth inhibition concentration (TGI) in experiment [1], in experiment [2], in experiment [3], in experiment [4], in experiment [5] and in experiment [6] was > 100 µM each time. Besides, the concentration for total growth inhibition (TGI) in experiment [7] and in experiment [8] was > 100 µM in each case.

On to `CS(=O)(=O)c1ccc(-c2[nH]c3ccc(F)cc3c2/C=N/NC(N)=S)cc1`, for which the GI50 in experiment [1] was 2.42 µM; in experiment [2], 0.466 µM; in experiment [3], 2.1 µM; in experiment [4], 2.17 µM; in experiment [5], 0.611 µM; in experiment [6] it was 0.312 µM. In addition, the figures for the GI50 in experiment [7] and in experiment [8] were 1.17 µM and 1.64 µM, respectively. Besides, the total growth inhibition concentration (TGI) in experiment [1] was > 100 µM; in experiment [2], 3.75 µM; in experiment [3] it was 18.7 µM; in experiment [4] it was > 100 µM; in experiment [5], > 100 µM; in experiment [6], 22.3 µM. The TGI in experiment [7] and in experiment [8] was > 100 µM in each case.

For `Cc1cccc2c1ccc1c3occ(C)c3c(=O)oc21`, the GI50 is > 100 µM in experiment [1]; > 100 µM in experiment [2]; 23.4 µM in experiment [3]; > 100 µM in experiment [4]; > 100 µM in experiment [5]; > 100 µM in experiment [6]. Also, the GI50 in experiment [7] and in experiment [8] was > 100 µM in each case. Besides, the total growth inhibition concentration (TGI) in experiment [1], in experiment [2], in experiment [3], in experiment [4], in experiment [5] and in experiment [6] was > 100 µM in each case. For the same molecule, the total growth inhibition concentration (TGI) in experiment [7] and in experiment [8] was > 100 µM throughout.

Regarding `Cc1cn2c(/C=N/N=C(N)N)c(-c3cc(Cl)sc3Cl)nc2s1`, the GI50 in experiment [3] is 0.777 µM; in experiment [4] it was 0.908 µM; in experiment [5], 1.84 µM; in experiment [6], 0.874 µM; in experiment [7] it was 5.57 µM. The concentration for total growth inhibition (TGI) in experiment [3] amounted to 2.04 µM; in experiment [4], 1.63 µM; in experiment [5], 8.55 µM; in experiment [6] it was 1.56 µM; in experiment [7], 13.3 µM.

With `CCCC(=O)Nc1ncnc2c1ncn2C1OC2COP(=O)(O)OC2C1OC(=O)CCC` (configuration not stated), the GI50 in experiment [1], in experiment [2], in experiment [3], in experiment [4], in experiment [5] and in experiment [6] was > 1000 µM throughout. The GI50 in experiment [7] and in experiment [8] was > 1000 µM in each case. The total growth inhibition concentration (TGI) in experiment [1], in experiment [2], in experiment [3], in experiment [4], in experiment [5] and in experiment [6] was > 1000 µM in each case. Moreover, the TGI in experiment [7] and in experiment [8] was > 1000 µM throughout.

As for `O=c1cc(-c2ccccc2)nc2cc(-c3ccco3)[nH]n12`, the GI50 in experiment [1] is 14.9 µM; in experiment [2], 6.77 µM; in experiment [3], 0.554 µM; in experiment [4], 22.6 µM; in experiment [5] it was 6.16 µM; in experiment [6], 9.45 µM. For the same molecule, the GI50 in experiment [7] is 11.4 µM; in experiment [8] it was 13.4 µM. The TGI in experiment [1] is > 100 µM; in experiment [2], 40.7 µM; in experiment [3], > 100 µM; in experiment [4] it was > 100 µM; in experiment [5], > 100 µM; in experiment [6] it was > 100 µM. Besides, the TGI in experiment [7] was 50.9 µM; in experiment [8], > 100 µM.

Regarding `O=[N+]([O-])c1ccc(NN=C2c3ccccc3Cc3ccccc32)c([N+](=O)[O-])c1`, the TGI in experiment [1] is > 100 µM; in experiment [2] it was 7.97 µM; in experiment [3], > 100 µM; in experiment [4] it was > 100 µM; in experiment [5] it was > 100 µM; in experiment [6], > 100 µM. Also, the TGI in experiment [7] and in experiment [8] was > 100 µM each time.

On to `O=C(Nc1ccc(Cl)cc1F)c1cc(Cl)ccc1O`, for which the GI50 in experiment [1] is 0.52 µM; in experiment [2], 0.337 µM; in experiment [3], 0.442 µM; in experiment [4], 0.532 µM; in experiment [5], 0.519 µM; in experiment [6], 0.437 µM. The GI50 is 0.364 µM in experiment [7] and 0.999 µM in experiment [8]. In addition, the TGI in experiment [1] was > 27.6 µM; in experiment [3] it was 10.2 µM; in experiment [4], > 88 µM; in experiment [6], 2.78 µM; in experiment [7] it was 2.38 µM; in experiment [8], > 24.5 µM.

As usually defined, the GI50 is the concentration that inhibits growth by half. The term TGI denotes the concentration giving total growth inhibition. Low values mean more potent growth arrest, high ones less potent growth arrest.
